Laboratory results: patent US20120122727A1, “IN VITRO METHOD FOR PREDICTING WHETHER A COMPOUND IS GENOTOXIC IN VIVO” (priority 2009, published 2012)
Where two headings read alike, the source gives them in different places.

Assays:
[1] = test system: primary mouse hepatocytes; assay: Class prediction true GTX vs false GTX by PAM from hepatocyte gene expression
Experimental: PAM uses gene expression data to calculate the shrunken centroid for each class and identifies the specific genes that determine the centroid most. Based on the nearest shrunken centroid, PAM is also capable of predicting to which class an unknown sample belongs (27). Class prediction was performed after 24 h and 48 h of exposure.
For this analysis, the gene list with differentially expressed probe sets was used. For each exposure period, 3 sets of genes (classifiers) were generated by PAM, using all ten treatments, based on the smallest estimated misclassification error rate (generated by 10-fold cross-validation) and a >80% predicted test probability. This was done by using 2 experiments as training set and the third experiment for validation. This was done for all 3 possible combinations, each time leaving out another experiment. For each time point, the classifiers that were in common between the three training sets, were set as the final classifier set for that time point
For the purpose of validating the class discrimination models with the final classifier sets, gene expression data were generated for two additional true GTX compounds, phenacetin and DMBA, and for three False GTX compounds, cur, ethylacrylate and resorcinol and the vehicle control for exposure periods of 24 and 48 h.

[2] = cited from earlier work

| Prediction 24 h Exp 1 [1] | Prediction 24 h Exp 2 [1] | Prediction 24 h Exp 3 [1] | Prediction 48 h Exp 1 [1] | Prediction 48 h Exp 2 [1] | Prediction 48 h Exp 3 [1] | class prediction (true GTX / false GTX) [1] | predicted test probability ([1]; mouse) [%] | SMILES | class prediction (true GTX / false GTX) ([1]; 24 h exposure, independent triplicate treatments) | class prediction (true GTX / false GTX) ([1]; 48 h exposure, independent triplicate treatments) | Prediction 24 h Exp 1 ([1]; PAM class prediction, 24 h, Exp 1) | Prediction 24 h Exp 2 ([1]; PAM class prediction, 24 h, Exp 2) | Prediction 24 h Exp 3 ([1]; PAM class prediction, 24 h, Exp 3) | Prediction 48 h Exp 1 ([1]; PAM class prediction, 48 h, Exp 1) | Prediction 48 h Exp 2 ([1]; PAM class prediction, 48 h, Exp 2) | Prediction 48 h Exp 3 ([1]; PAM class prediction, 48 h, Exp 3) | predicted test probability ([1]; both time points (24 and 48 h)) [%] | Genotoxic class ([2]; in vivo) | Genotoxic class ([2]; known class of the validation compound (GTX = true GTX, FP-GTX = false GTX)) |
| --- | --- | --- | --- | --- | --- | --- | --- | --- | --- | --- | --- | --- | --- | --- | --- | --- | --- | --- | --- |
|  |  |  |  |  |  |  |  | C=CC(=O)OCC [ethylacrylate] | classified correctly | classified correctly | FP-GTX | FP-GTX | FP-GTX | FP-GTX | FP-GTX | FP-GTX | 100 | FP-GTX |  |
| FP-GTX | FP-GTX | FP-GTX | FP-GTX | FP-GTX | FP-GTX | classified correctly | 100 | Oc1cccc(O)c1 [resorcinol] |  |  |  |  |  |  |  |  |  |  | FP-GTX |
